Biological target: T1, recombinant human PAI-1 (Homo sapiens, UniProt P05121)
T1 construct: purchased Molecular Innovations, Inc
Test: Test Example 2: human PAI-1 inhibitory activity (tPA fluorogenic substrate, pH 7.4 HEPES buffer)
Assay type: biochemical
Conditions: human PAI-1
Description: 0.1 M HEPES, 0.1 M NaCl. 1 mM EDTA. 0.1% Polyethylene glycol 8,000 (Hampton Research Corporation),
2 mM Dimethyldecylphoshine oxide [Apo-10] (Fluka Corporation)

[1] = compound concentration 0.1 μM, 0.1 µM
[2] = compound concentration 0.3 μM, 0.3 µM
[3] = compound concentration 1 μM, 1 µM
[4] = compound concentration 3 μM, 3 µM

T1 sequence (P05121 24-402): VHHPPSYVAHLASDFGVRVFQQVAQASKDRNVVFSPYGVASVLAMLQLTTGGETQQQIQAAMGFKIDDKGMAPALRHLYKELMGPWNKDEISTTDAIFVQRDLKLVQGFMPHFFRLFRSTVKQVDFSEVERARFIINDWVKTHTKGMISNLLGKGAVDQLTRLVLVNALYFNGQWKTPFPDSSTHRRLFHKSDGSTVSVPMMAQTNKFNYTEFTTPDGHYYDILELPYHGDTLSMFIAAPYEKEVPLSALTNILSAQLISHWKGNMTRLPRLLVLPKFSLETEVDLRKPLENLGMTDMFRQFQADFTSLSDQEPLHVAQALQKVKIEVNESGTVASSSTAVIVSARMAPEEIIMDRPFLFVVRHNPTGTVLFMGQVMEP

Row | Inhibition Rate of PAI-1 Activity (%) (compound concentration 1 μM) | Inhibition Rate of PAI-1 Activity (%) (compound concentration 3 μM) | Inhibition Rate of PAI-1 Activity (%) (compound concentration 10 μM) | Inhibition Rate of PAI-1 Activity (%) (compound concentration 25 μM) | Inhibition Rate of PAI-1 Activity (%) (compound concentration 0.1 μM) | Inhibition Rate of PAI-1 Activity (%) (compound concentration 0.3 μM) | Inhibition Rate of PAI-1 Activity (%) [1] [%] | Inhibition Rate of PAI-1 Activity (%) [2] [%] | Inhibition Rate of PAI-1 Activity (%) [3] [%] | Inhibition Rate of PAI-1 Activity (%) [4] [%] | Compound
1 | 40 | >99 | >99 | 90 |  |  |  |  |  |  | CC(C)(C)c1ccc(CN(C(=O)C(=O)O)c2ccc(N3CCN(c4ccc(OC(F)(F)F)cc4)CC3)cc2)cc1 [Compound 628]
2 | 31 | 97 |  |  | 0 | 9 |  |  |  |  | O=C(O)C(=O)N(Cc1ccc(-c2ccc(OC(F)(F)F)cc2)cc1)c1ccccc1-c1ccccc1 [Compound 632]
3 | >99 | 92 |  |  | 17 | 37 |  |  |  |  | O=C(O)C(=O)N(CCCCc1ccccc1)c1cc(-c2ccc(OC(F)(F)F)cc2)ccc1OC1C2CC3CC(C2)CC1C3 (stereo not shown) [Compound 634]
4 | 45 | 91 |  |  | 14 | 30 |  |  |  |  | CC(C)(C)c1ccc(Oc2cc(-c3ccc(OC(F)(F)F)cc3)ccc2N(CCCCc2ccccc2)C(=O)C(=O)O)cc1 [Compound 635]
5 | 72 | 81 |  |  | 2 | 21 |  |  |  |  | CC(C)(C)c1ccc(Oc2ccc(-c3ccc(OC(F)(F)F)cc3)cc2N(CCCCc2ccccc2)C(=O)C(=O)O)cc1 [Compound 636]
6 | 80 | 71 |  |  | 0 | 5 |  |  |  |  | CCCCC1CCC(Oc2ccc(-c3ccc(OC(F)(F)F)cc3)cc2N(CCCCc2ccccc2)C(=O)C(=O)O)CC1 (stereo not shown) [Compound 637]
7 | 57 | >99 |  |  | 5 | 15 |  |  |  |  | O=C(O)C(=O)N(CCCCc1ccccc1)c1cc(-c2ccc(OC(F)(F)F)cc2)ccc1Oc1ccccc1 [Compound 638]
8 | 91 | 87 |  |  | 6 | 12 |  |  |  |  | CC(C)[C@@H]1CC[C@@H](C)C[C@H]1Oc1ccc(-c2ccc(OC(F)(F)F)cc2)cc1N(CCCCc1ccccc1)C(=O)C(=O)O [Compound 639]
9 | 92 | 92 |  |  | 0 | 19 |  |  |  |  | CCCCCOc1ccc(-c2ccc(OC(F)(F)F)cc2)cc1N(CCCCc1ccccc1)CC(=O)O [Compound 640]
10 | 95 | 95 |  |  | 9 | 53 |  |  |  |  | CCCCC(C(=O)O)N(Cc1ccc(C(C)(C)C)cc1)c1cccc(-c2ccc(OC(F)(F)F)cc2)c1 (stereo not shown) [Compound 641]
11 | 94 | 93 |  |  | 16 | 57 |  |  |  |  | CCCCC(C(=O)O)N(Cc1ccc(C(C)(C)C)cc1)c1ccc(-c2ccc(OC(F)(F)F)cc2)cc1 (stereo not shown) [Compound 642]
12 | 38 | 92 |  |  | 0 | 18 |  |  |  |  | CCCCCOc1cc(-c2ccc(OC(F)(F)F)cc2)ccc1N(CCCCc1ccccc1)CC(=O)O [Compound 643]
13 | 30 | 93 |  |  | 27 | 8 |  |  |  |  | CC(C)(C)OCCOc1ccc(-c2ccc(OC(F)(F)F)cc2)cc1N(CCCCc1ccccc1)CC(=O)O [Compound 644]
14 | 95 | >99 |  |  | 6 | 26 |  |  |  |  | CCCCCOc1ccc(-c2ccc(OC(F)(F)F)cc2)cc1CN(C(=O)C(=O)O)c1ccc(C(C)(C)C)cc1 [Compound 645]
15 | 38 | 86 |  |  | 4 | 15 |  |  |  |  | O=C(O)CCCCCCCCOc1ccc(-c2ccc(OC(F)(F)F)cc2)cc1N(CCCCc1ccccc1)C(=O)C(=O)O [Compound 646]
16 | 95 | 98 |  |  | 27 | 43 |  |  |  |  | CCCCCOc1ccc(-c2ccc(OC(F)(F)F)cc2)cc1CN(CC(=O)O)c1ccc(C(C)(C)C)cc1 [Compound 647]
17 | 86 | 89 |  |  | 4 | 23 |  |  |  |  | CCCCCOc1cc(-c2ccc(OC(F)(F)F)cc2)ccc1CN(C(=O)C(=O)O)c1ccc(C(C)(C)C)cc1 [Compound 648]

Row | Inhibition Rate of PAI-1 Activity (%) (compound concentration 1 μM) | Inhibition Rate of PAI-1 Activity (%) (compound concentration 3 μM) | Inhibition Rate of PAI-1 Activity (%) (compound concentration 10 μM) | Inhibition Rate of PAI-1 Activity (%) (compound concentration 25 μM) | Inhibition Rate of PAI-1 Activity (%) (compound concentration 0.1 μM) | Inhibition Rate of PAI-1 Activity (%) (compound concentration 0.3 μM) | Inhibition Rate of PAI-1 Activity (%) [1] [%] | Inhibition Rate of PAI-1 Activity (%) [2] [%] | Inhibition Rate of PAI-1 Activity (%) [3] [%] | Inhibition Rate of PAI-1 Activity (%) [4] [%] | Compound
18 | 96 | 97 |  |  | 10 | 64 |  |  |  |  | CCCCCOc1cc(-c2ccc(OC(F)(F)F)cc2)ccc1CN(CC(=O)O)c1ccc(C(C)(C)C)cc1 [Compound 649]
19 | >99 | >99 |  |  | 16 | 40 |  |  |  |  | CCCCCCCOc1cc(N(CCCCc2ccccc2)C(=O)C(=O)O)ccc1-c1ccc(OC(F)(F)F)cc1 [Compound 650]
20 | 15 | 74 |  |  | 0 | 0 |  |  |  |  | COc1ccc(-c2ccc(OC(F)(F)F)cc2)cc1N(CCCCc1ccccc1)C(=O)C(=O)O [Compound 651]
21 | >99 | >99 |  |  | 19 | 22 |  |  |  |  | CCCCCCOc1ccc(-c2ccc(OC(F)(F)F)cc2)cc1N(CCCCc1ccccc1)C(=O)C(=O)O [Compound 652]
22 | >99 | >99 |  |  | 43 | 95 |  |  |  |  | CCCCCCCCOc1ccc(-c2ccc(OC(F)(F)F)cc2)cc1N(CCCCc1ccccc1)C(=O)C(=O)O [Compound 653]
23 | >99 | >99 |  |  | 4 | 19 |  |  |  |  | CCCCCOc1cc(N(CCCCc2ccccc2)C(=O)C(=O)O)ccc1-c1ccc(OC(F)(F)F)cc1 [Compound 654]
24 | 44 | 97 |  |  | 3 | 0 |  |  |  |  | CCCCCOc1ccc(-c2ccc(OC(F)(F)F)cc2)cc1N(CCCOCc1ccccc1)C(=O)C(=O)O [Compound 655]
25 | 95 | 88 |  |  | 24 | 64 |  |  |  |  | O=C(O)C(=O)N(CCCCc1ccccc1)c1cc(-c2ccc(OC(F)(F)F)cc2)ccc1OCCCC1CCCCC1 [Compound 656]
26 | 99 | >99 |  |  | 15 | 20 |  |  |  |  | CCCCCN(C(=O)C(=O)O)c1cc(-c2ccc(OC(F)(F)F)cc2)ccc1OCCCOc1ccccc1 [Compound 657]
27 | 97 | >99 |  |  | 9 | 20 |  |  |  |  | O=C(O)C(=O)N(CCCCc1ccccc1)c1cc(-c2ccc(OC(F)(F)F)cc2)ccc1OC1CCCC1 [Compound 658]
28 | >99 | 96 |  |  | 12 | 26 |  |  |  |  | O=C(O)C(=O)N(CCCCc1ccccc1)c1cc(-c2ccc(OC(F)(F)F)cc2)ccc1OC1CCCCCC1 [Compound 659]
29 | 27 | >99 |  |  | 6 | 11 |  |  |  |  | O=C(O)C(=O)N(Cc1ccc2ccccc2c1)c1ccc(-c2ccc(OC(F)(F)F)cc2)cc1 [Compound 661]
30 | 98 | 95 |  |  | 18 | 28 |  |  |  |  | Cc1cc(C)cc(COc2ccc(-c3ccc(OC(F)(F)F)cc3)cc2N(CCCCc2ccccc2)C(=O)C(=O)O)c1 [Compound 662]
31 |  |  |  |  |  |  | 9 | 8 | 67 | >99 | CC(C)(C)C1CCC(N(C(=O)C(=O)O)c2ccc(-c3ccc(OC(F)(F)F)cc3)cc2)CC1 (stereo not shown) [Compound 665]
32 |  |  |  |  |  |  | 0 | 21 | 89 | 98 | CC(C)(C)C1CCC(N(C(=O)C(=O)O)c2ccc(-c3ccc(OC(F)(F)F)cc3)cc2)CC1 (stereo not shown) [Compound 666]
33 | >99 | >99 |  |  | 28 | 34 |  |  |  |  | CCCCCCCCCCN(C(=O)C(=O)O)c1ccc(-c2ccc(OC(F)(F)F)cc2)cc1 [Compound 669]
34 | 97 | 94 |  |  | 6 | 55 |  |  |  |  | CCCCCOc1ccc(-c2ccc(OC(F)(F)F)cc2)cc1N(CCCCc1cc(C)ccc1C)C(=O)C(=O)O [Compound 670]
